Results on two compounds are retold here after US6541453B2, “Peptide derivatives” (Syngenta Limited, priority 1996, dated 2003).

Data set [1] has as its target T1, HLA-DR1 (Homo sapiens, UniProt P01903+P01911, A100R/D57E/F55L/F60I/F76Y/I96L/L162R/M171V/P40L/Q125E/R42F/V115G/Y59C).
T1 construct: endogenous in cells; host or cells: Hom 2 cell line
The data set can be described thus: Variant to Test A: peptide selectivity binding assay. As for the experimental part: The method used was a modification of that described by Gorga et al, 1987, J.Biol.Chem. 262, 16087-16094. Human HLA-DR antigens were purified from various cell lines by immunoaffinity chromatography. Briefly, 1×10^9-5×10^9 pelleted cells of the appropriate cell line selected from Hom 2 (source of DR1), BBF (source of DR2), AVL-B (source of DR3), JAH (source of DR4Dw4), JHAF (source of DR4Dw13) or PE117 (source of DR4Dwl4) were solubilised at approximately 4° C. in 50 ml of 5 mM EDTA (sodium salt), 50 mM Tris-HCL pH 7.4, 2% NP40, 150 mM NaCl, 1 mM iodoacetamide, 1 mM PMSF, by homogenisation with 10 strokes of a teflon glass homogeniser. […] Protein content was determined by a Biorad protein assay and purity by SDS-PAGE electrophoresis.
200 nM biotin-FHA307-320 in phosphate buffered saline (PBS) was incubated with either purified HLA-DR1, DR2, DR4Dw4, DR4Dw13 or DR4Dwl4 (2-20 μg/ml) in V-well microtitre plates (Nunc) with or without inhibitor peptides in assay buffer (PBS, 0.01% NP40 (Sigma.)) For DR3 inhibition, 400 nM Biotin-Ahx-(D)Ala-Ala-Ala-Cha-[…](D)Ala-OH [SEQ ID No. 14] was incubated with purified DR3 (20 μg/ml.), and incubated as above. After 48 hours, the incubates were treated, and absorbance readings taken as described in Test A. The inhibitory activity of peptides, expressed as IC50 values, was calculated using Microcal Origin software on a PC.

Data set [2] in a line: Peptide content of extruded polymer depot formulation (loss on extrusion). The format is physicochemical. As for the experimental part:
About 20 mg of peptide is accurately weighed and sufficient polymer (50/50% molar poly(D,L-lactic acid/glycolic acid) copolymer of approximate weight average molecular weight 20 kD and approximate polydispersity of 1.7 as determined by size exclusion chromatography relative to polystyrene standards) added to produce an approximate 20% w/w mixture. This is dissolved in anhydride-free glacial acetic acid to produce an approximate 10% w/v solution. The solution is freeze dried and the resulting freeze dried product is stored under vacuum prior to use.
About 100 mg of freeze dried material is loaded into the barrel of a small laboratory extruder and the plunger pushed down to consolidate the sample. The extruder is heated to between 90 and 95 ° C. and held at this temperature for 10 minutes before the freeze dried material is extruded under pressure to give a cylindrical extrudate of approximately 1 mm in diameter. […]
Each standard is filtered through a 5 μm Millex PTFE filter and an aliquot of filtrate, together with aliquots of the solutions A, analysed by HPLC using duplicate sample injections. The peptide content of the extruded polymer depot formulation of peptide is calculated from the concentration of peptide in solutions A, which is determined by comparing the area of the peptide peak in solutions A with the area of the peptide peak from the standard solutions.

Data set [3] in a line: Aqueous stability of peptide in McIlvaine's citric acid-phosphate buffer.
Procedure: Approximately 20 ml of McIlvaine's citric acid-phosphate buffer solution at pH 3 or 7.6 containing 0.02% sodium azide is filtered into a 50 ml bottle using a sterile 0.22 μm filter unit and a 20 ml syringe. Approximately 1.2 mg of peptide is accurately weighed in a capped vial. […] The vial is capped and shaken to dissolve the peptide. Using a sterile pipette tip, aliquots of approximately 1 ml of the peptide solution are transferred to 10 HPLC vials, which are then capped. 5 vials are stored at −18 and 37° C. The area of the peptide peak for the solution is determined by HPLC using appropriate standards initially and after storage at −18 and 37° C. for 1, 2, 3 and 4 weeks, using a fresh vial at each time point with duplicate sample injections. The percentage of peptide remaining after storage at 37° C. at each time point is determined from the ratio of the area of the peptide peak at each time point to the initial area.
Data set [4] is described as follows: Degradation of peptide on in vitro release from an extruded polymer depot.
Procedure: A solution of McIlvaine's citric acid-phosphate buffer solution at pH 7.6 containing 0.02% sodium azide, is filtered through a 0.22μ filter and stored at 4° C. Approximately 10 mg of extruded polymer depot containing peptide is placed in two small vials and 2 ml of the buffer solution added. The vials are then capped and stored in a water bath at 37° C. for a month. At suitable time points over a month, three 0.6 ml aliquots of release medium are removed from each vial and either analysed by HPLC or stored frozen in an HPLC vial at −18° C. prior to analysis by HPLC. 1.8 ml of the buffer solution is added to each vial containing the depot to replace the release medium that has been removed at each time point.
The average amount of intact peptide in the release medium at each time point is determined by HPLC using duplicate sample injections by comparing the area of the peptide peak in the release media with the area of the peptide peak from standard buffer solutions of peptide at known concentrations. […] The average cumulative in vitro release profile of intact peptide and total peptide (intact peptide and peptide degradation products) is determined from the amounts of intact peptide and peptide degradation products in the release medium at each time point.

Molecules are shown by their SMILES. Like-named read-outs stand apart in the source and are kept apart here.

Turning to `COCCOCCOCCN(CCOCCOCCOC)C(=O)CN(CC(=O)N(CCOCCOCCOC)CCOCCOCCOC)C(=O)C[C@H](NC(=O)[C@H](C)NC(=O)[C@H](C)NC(=O)[C@H](CCCNC(=N)N)NC(=O)CCCCc1ccccc1)C(=O)N[C@H](C(=O)N[C@@H]1CCN([C@@H](C)C(=O)N[C@@H](C)C(=O)Nc2ccc(CC(N)=O)cc2)C1=O)[C@@H](C)O` [Example 6, Phv-Arg-Ala-Ala-II-Thr-IIIa-Ala-Papa-NH2], the aqueous stability entry was “good aqueous stability” (pH3) and “good aqueous stability” (pH7.6). In addition, in data set [1], the half-inhibitory concentration (IC50) was over 100 µM. Besides, the “loss due to degradation on extrusion” value in data set [2] was “minimal loss due to degradation on extrusion”.
On to `COCCN(CCOC)C(=O)CN(CC(=O)N(CCOC)CCOC)C(=O)C[C@H](NC(=O)[C@H](C)NC(=O)[C@H](CCCNC(=N)N)NC(=O)[C@H](C)NC(=O)CCCCc1ccccc1)C(=O)N[C@H](C(=O)N[C@@H]1CCN([C@@H](C)C(=O)N[C@@H](C)C(=O)Nc2ccc(CC(N)=O)cc2)C1=O)[C@@H](C)O` [Example 3, Phv-Ala-Arg-Ala-II-Thr-IIIa-Ala-Papa-NH2], for which the aqueous stability result in data set [3] (pH3) and in data set [3] (pH7.6) was “good aqueous stability” throughout. Moreover, the “degradation on release from depot formulation” value in data set [4] is listed as “minimal degradation on release”. The 50% inhibitory concentration (IC50) in data set [1] is over 100 µM. For the same compound, in data set [2], the “loss due to degradation on extrusion” value is reported as “minimal loss due to degradation on extrusion”.

Broadly, the IC50 is the concentration that inhibits the measured activity by half.
